This note sets out measurements from ChEMBL document CHEMBL3987221, “The Australian National University Dept Of Immunology Pathogen Box Compounds Screened” (2018).

Assay [1] addresses T1, Porphobilinogen deaminase (Homo sapiens) (UniProt P08397).
T1 sequence (whole entry): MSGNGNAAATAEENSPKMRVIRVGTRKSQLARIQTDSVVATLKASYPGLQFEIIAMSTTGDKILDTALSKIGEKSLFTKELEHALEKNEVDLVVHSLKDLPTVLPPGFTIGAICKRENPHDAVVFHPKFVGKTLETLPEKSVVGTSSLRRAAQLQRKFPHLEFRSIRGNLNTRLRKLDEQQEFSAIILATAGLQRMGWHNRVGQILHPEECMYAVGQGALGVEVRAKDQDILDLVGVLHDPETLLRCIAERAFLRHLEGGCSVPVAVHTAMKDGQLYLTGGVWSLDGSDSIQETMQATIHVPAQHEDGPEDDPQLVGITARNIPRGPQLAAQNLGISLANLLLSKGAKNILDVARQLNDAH
The settings on record: at 100 µM.
Description: Compound was evaluated for the inhibition of human HMBS at 100uM

Assay [2] addresses T2, Ferrochelatase, mitochondrial (Homo sapiens) (UniProt P22830).
T2 sequence (whole entry): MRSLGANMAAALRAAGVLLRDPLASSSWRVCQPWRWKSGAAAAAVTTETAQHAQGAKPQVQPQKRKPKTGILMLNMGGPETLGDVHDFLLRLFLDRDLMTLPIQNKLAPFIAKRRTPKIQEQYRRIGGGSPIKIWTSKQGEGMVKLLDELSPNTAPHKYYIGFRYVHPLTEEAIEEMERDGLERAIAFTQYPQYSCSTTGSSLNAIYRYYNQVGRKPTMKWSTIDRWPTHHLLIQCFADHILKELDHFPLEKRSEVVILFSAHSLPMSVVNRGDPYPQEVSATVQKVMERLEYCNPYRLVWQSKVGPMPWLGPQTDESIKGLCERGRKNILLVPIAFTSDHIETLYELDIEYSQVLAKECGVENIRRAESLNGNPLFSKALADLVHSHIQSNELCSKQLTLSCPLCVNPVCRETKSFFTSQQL
The settings on record: at 10 µM.
Description: Compound was evaluated for the inhibition of human FECH at 10uM

Calls of active or inactive are those of the source. No rule for the calls is given here.

On to `COc1ccc(-c2cncc3ccc(C(=O)NCCCn4ccnc4)nc23)cc1`, for which the inhibition result in assay [1] and in assay [2] was “inactive” throughout.

Take `O=C(C1CCN(c2cc(-n3cccc3)ncn2)CC1)N1CCc2ccccc2C1`: the inhibition entry in assay [1] and in assay [2] was “inactive” in each case.

As to `CC(c1cc(Cl)cc(Cl)c1)N(C)c1ncc2c(N)nc(N)nc2n1` (configuration not stated), the inhibition entry in assay [1] and in assay [2] was “inactive” throughout.

Regarding `CCc1ccc(S(=O)(=O)Nc2cc(CN3CCN(CCC(C)C)CC3)ccc2C)cc1`, the inhibition result in assay [1] and in assay [2] was “inactive” throughout.

Take `O=C(C(Cc1c[nH]c2ccccc12)NS(=O)(=O)c1ccc(Cl)cc1)N1CCCCC1` (configuration not stated): the inhibition entry in assay [1] and in assay [2] was “inactive” in each case.

As to `CC(C)(C)OC(=O)N1CCN(c2nccc(-c3ccc(-c4ccc(Cl)cc4)s3)n2)CC1`, the inhibition result in assay [1] and in assay [2] was “inactive” each time.

As for `CCOc1ccccc1C(=O)Nc1cccc(-c2nc3ncccn3c2C)c1`, the inhibition entry in assay [1] and in assay [2] was “inactive” in each case.

As for `NCCN(C(=O)c1ccc(Cl)cc1Cl)c1ccc(OCc2ccc(Cl)cc2)cc1`, the inhibition entry in assay [1] and in assay [2] was “inactive” throughout.

For `Cc1noc(C)c1COc1cccc(C(=O)N=c2[nH]cccc2C)c1`, the inhibition entry in assay [1] and in assay [2] was “inactive” throughout.

As for `O=C(Nc1ccc2c(c1)B(O)OC2)c1ccccc1C(F)(F)F`, the inhibition entry in assay [1] and in assay [2] was “inactive” each time.

With `CCCCc1ccc(C(=O)Nc2nccc3ccccc23)nc1`, the inhibition entry in assay [1] and in assay [2] was “inactive” throughout.

Turning to `Cc1ccccc1CN1CCC(O)(c2ccc(Cl)c(C(F)(F)F)c2)CC1`, the inhibition result in assay [1] and in assay [2] was “inactive” throughout.

Regarding `CN(C(=O)c1cc2c(-c3cncnc3)cccc2[nH]1)c1ccccc1`, the inhibition entry in assay [1] and in assay [2] was “inactive” throughout.

For the molecule `COc1ccc(-c2cnc3ccc(N4CCCC4)nn23)cc1OC`, the inhibition entry in assay [1] and in assay [2] was “inactive” each time.

`COc1ccc(Nc2ccccc2NC(=O)c2ccc(O)nc2)cc1`: the inhibition entry in assay [1] and in assay [2] was “inactive” throughout.

On to `CO[C@@H]1CN(c2ccc(C#CC3(O)CN4CCC3CC4)c(Cc3ccccc3)n2)C[C@H]1O` (some centres not stated), for which the inhibition entry in assay [1] and in assay [2] was “inactive” throughout.

Regarding `CC(C)NCC(=O)Nc1cccc(C(=O)Nc2cccc(C(F)(F)F)c2)c1`, the inhibition result in assay [1] and in assay [2] was “inactive” in each case.

Consider `COc1cc(Br)cc2cc(C(=O)Nc3cccc(C(F)(F)F)c3)c(=O)oc12`, for which the inhibition result in assay [1] and in assay [2] was “inactive” each time.

As for `COc1cc(C2=NCCN2)ccc1-n1cc(-c2cccc(C3=NCCN3)c2)nn1`, the inhibition entry in assay [1] and in assay [2] was “inactive” in each case.

Turning to `COc1ccc(-c2onc(C(F)(F)F)c2-c2ccc(Cl)cc2)c(O)c1`, the inhibition result in assay [1] and in assay [2] was “inactive” in each case.

On to `COc1ccc2nc(C)cc(OCC(=O)NCc3ccccc3)c2c1`, for which the inhibition entry in assay [1] and in assay [2] was “inactive” throughout.

As to `O=C(Nc1cccnc1)c1c(O)c2cccc3c2n(c1=O)CC3`, the inhibition entry in assay [1] and in assay [2] was “inactive” each time.

On to `CS(=O)(=O)c1ccccc1C(=O)N(Cc1ccccc1)c1ccccc1`, for which the inhibition entry in assay [1] and in assay [2] was “inactive” throughout.

Turning to `CCc1cc(=O)n(C)c(SC(C)C(=O)Nc2ccc(F)cc2)n1` (configuration not stated), the inhibition entry in assay [1] and in assay [2] was “inactive” in each case.

With `COc1ccc(-c2cnc3cnc(-c4cccc(OC(C)C)c4)cn23)cc1`, the inhibition entry in assay [1] and in assay [2] was “inactive” each time.

For the molecule `COc1ccc(-c2cc(NC(=O)c3ccc(F)cc3Cl)ccc2OC)cc1`, the inhibition result in assay [1] and in assay [2] was “inactive” throughout.

With `CO/C=C(/C(=O)OC)c1ccccc1Oc1cc(Oc2ccccc2C#N)ncn1`, the inhibition entry in assay [1] and in assay [2] was “inactive” throughout.

Regarding `COc1cccc(-n2nnnc2S(C)(=O)=O)c1`, the inhibition entry in assay [1] and in assay [2] was “inactive” in each case.

With `COc1ccc(OC)c(NCc2ccc3nc(N)nc(N)c3c2Cl)c1`, the inhibition result in assay [1] and in assay [2] was “inactive” in each case.

With `CC(=O)NCC1CN(c2ccc(-c3ccc(CO)cc3)c(F)c2)C(=O)O1` (configuration not stated), the inhibition entry in assay [1] and in assay [2] was “inactive” each time.

As to `CCc1nn(C)c(C(=O)NCc2ccc(Oc3ccc(C)cc3)cc2)c1Cl`, the inhibition result in assay [1] and in assay [2] was “inactive” throughout.

For `CCC(Sc1nc2ccccc2o1)C(=O)Nc1nccs1` (configuration not stated), the inhibition result in assay [1] and in assay [2] was “inactive” throughout.

For the molecule `Nc1cccnc1Nc1ccc(Cl)cc1`, the inhibition entry in assay [1] and in assay [2] was “inactive” in each case.

In the case of `O=C(Nc1nnc(-c2ccc(Cl)s2)o1)c1ccc(Cl)s1`, the inhibition result in assay [1] and in assay [2] was “inactive” in each case.

For `O=C(Cn1ccnc1[N+](=O)[O-])NCc1ccccc1`, the inhibition entry in assay [1] and in assay [2] was “inactive” in each case.

Consider `CC1CS(=O)(=O)CCN1/N=C/c1ccc([N+](=O)[O-])o1` (configuration not stated), for which the inhibition result in assay [1] and in assay [2] was “inactive” in each case.

As to `O=C(Nc1cccc(-c2ccc(NCCCN3CCCC3)nc2)c1)c1ccccc1`, the inhibition entry in assay [1] and in assay [2] was “inactive” in each case.

In the case of `CC1(C)Cc2c(c(N3CCOCC3)nc3snc(Br)c23)CO1`, the inhibition result in assay [1] and in assay [2] was “inactive” each time.

In the case of `NS(=O)(=O)c1cncc(-c2ccc3nccc(-c4cn[nH]c4)c3n2)c1`, the inhibition result in assay [1] and in assay [2] was “inactive” throughout.

On to `CC(Oc1cccc(Cl)c1)C(=O)Nc1ccc2oc(-c3ccncc3)nc2c1` (configuration not stated), for which the inhibition result in assay [1] and in assay [2] was “inactive” in each case.

`O[C@@H](c1cc(C(F)(F)F)nc2c(C(F)(F)F)cccc12)[C@H]1CCCCN1`: the inhibition result in assay [1] and in assay [2] was “inactive” in each case.

For the molecule `CCOC(=O)NC(=O)c1ccsc1NC(=O)c1nc2ccccc2s1`, the inhibition result in assay [1] and in assay [2] was “inactive” throughout.

In the case of `COc1ccc(CCN2CCC(NCc3cccc(N(C)C)c3)CC2)cc1`, the inhibition entry in assay [1] and in assay [2] was “inactive” each time.

For the molecule `O=C(Nc1ccccc1)c1ccc(-c2cc3ccncc3cc2OC2CCNCC2)s1`, the inhibition result in assay [1] and in assay [2] was “inactive” throughout.

Take `COc1cc(OC)cc(C(=O)NCC2Cc3cc(Cl)cc(-c4ccncc4)c3O2)c1` (configuration not stated): the inhibition entry in assay [1] and in assay [2] was “inactive” each time.

As for `O=C1O[C@@H](CO)CN1c1cc(F)c(C2=CCN(Cc3ccccc3)CC2)c(F)c1`, the inhibition entry in assay [1] and in assay [2] was “inactive” throughout.

`NC(CC(=O)c1ccc(Cl)cc1Cl)C(Cl)(Cl)Cl` (configuration not stated): the inhibition entry in assay [1] and in assay [2] was “inactive” each time.

As for `Cc1nn(C)cc1C(C)Nc1nncc(-c2ccc(C(F)(F)F)cc2)n1` (configuration not stated), the inhibition entry in assay [1] and in assay [2] was “inactive” each time.

For the molecule `Cc1cc(NC(=O)c2ccc(S(=O)(=O)N(Cc3ccccc3)C(C)C)cc2)no1`, the inhibition entry in assay [1] and in assay [2] was “inactive” throughout.

As for `c1ccc(Oc2ccc(-c3cc(N4CCNCC4)[nH]n3)cc2)cc1`, the inhibition result in assay [1] and in assay [2] was “inactive” each time.

Take `Cn1ncc2c(N3CCOCC3)nc(NCCc3c[nH]c4ccccc34)nc21`: the inhibition entry in assay [1] and in assay [2] was “inactive” in each case.

As to `O=C(Nc1ccc(N2CCNCC2)cc1)c1ccn2ncc(-c3cccc(Cl)c3)c2n1`, the inhibition result in assay [1] and in assay [2] was “inactive” throughout.

Turning to `COc1cccc(-c2cc3c(Nc4cccnc4)nccc3[nH]2)c1`, the inhibition entry in assay [1] and in assay [2] was “inactive” in each case.

In the case of `O=C(NC1CC1)c1ccc(CSCc2ccccc2Cl)o1`, the inhibition entry in assay [1] and in assay [2] was “inactive” each time.

`COc1cccc(-n2nnnc2S(=O)(=O)Cc2ccccc2)c1`: the inhibition result in assay [1] and in assay [2] was “inactive” throughout.

Regarding `CC(C)(C(=O)Nc1ccc(F)cc1)n1cc(-c2ccccc2F)cn1`, the inhibition entry in assay [1] and in assay [2] was “inactive” throughout.
